Test results reported in patent US20250154212A1, “METHOD OF DISRUPTING MEMORY AND LIPOPEPTIDE FOR USE IN SUCH METHOD” (The Research Foundation for The State University of New York, priority 2023, published 2025).
Entries after “also recorded” stand apart in the source; their conditions may differ. Where no end group is shown, it is not given here. The star is where a group is joined. Myristoyl = CCCCCCCCCCCCCC(=O)*

How the values were obtained:
Assay type in all cases: in vivo, mouse
[1] = system: contextual fear/threat memory in PKMζ-null mice; test: Contextual fear/threat conditioning, infusion into dorsal hippocampus, PKMζ-null mice; details: 10 nmol in 0.5 μl per hemisphere in hippocampus, tested 24 h post-infusion
Method: (§1) Mice were 8-10 weeks old at the time of cannulation and 9-11 weeks at the beginning of behavioral experiments. Mice were housed with cage-mates in plastic cages and provided with food and water ad libitum. Mice were maintained on a 12 h light/dark cycle (lights on at 7:00 am) and behavioral experiments began at 9:00 am.
(§2) Mice were injected intraperitoneally (1 ml/100 g body weight) with an anesthetic cocktail containing ketamine (10 mg/ml) and xylazine (2 mg/ml). Mice were provided with analgesic treatment prior to surgery (carprofen; 5 mg/ml). Guide cannulae (Plastics One, Roanoke, VA) were implanted bilaterally in the dorsal hippocampus (from bregma: AP-2.1 mm; L+/−1.8 mm; DV-1.2 mm) and secured to the skull with three jeweler's screws and dental cement. Antisedan (0.66 ml/100 g body weight of 0.5 mg drug/ml solution) was given via i.p. injection after surgery to reverse the anesthesia.
(§3) For 7 days following surgery, mice were handled by freely exploring the experimenter's palm for 2-5 min. Mice were trained and tested in the same conditioning box (Coulbourn Habitest, Coulboum Instruments), which consisted of a grid floor and blank walls. […] Freezing behavior (cessation of all movement except breathing) during the 4 min session was recorded by an experimenter blind to the conditions. […]

[2] = system: spatial long-term memory in PKMζ-null mice; test: Active place avoidance, intrahippocampal injection, PKMζ-null mice; details: 5 nmol in 0.5 μl per hippocampus 1 day after conditioning, tested 2 days post-injection
Method: For spatial long-term memory experiments, we adapted the approach used in Garcia-Osta et al. (82). Mice were ˜12-weeks old at surgery. Briefly, to implant the injection cannula hardware, mice were anesthetized by an intraperitoneal (i.p.) injection of a mixture of dexmedetomidine ([…] body weight) and ketamine (28 mg/kg body weight), and mounted in a Kopf stereotaxic frame (Tujunga, CA). The tips of guide cannula (Plastics One, Roanoke, VA; Part Numbers: C235GS-5-2.0) were targeted above the injection target in the dorsal hippocampus (AP-1.94 mm; ML±1.00 mm; DV-0.90 mm). The other injection hardware (Part Numbers: C235DCs-5, 303DC/1; cannula dummy, cannula cap, respectively) was assembled, and antisedan (0.65 mg/kg body weight i.p.) was administered to reverse the sedation at the end of surgery.
Three to four weeks after surgery, the animals received active place avoidance training. […]
Active place avoidance was conducted with a commercial computer-controlled system (Bio-Signal Group, Acton, MA). […] Every 33 ms, the software determined the mouse's position, whether it was in the shock zone, and whether to deliver shock. […]
The tracked animal positions with timestamps were analyzed offline (TrackAnalysis, Bio-Signal Group, Acton, MA) to extract several end-point measures. […]

[3] = system: contextual fear/threat memory; test: Contextual fear/threat conditioning, infusion into dorsal hippocampus, wild-type mice; details: 10 nmol in 0.5 μl per hemisphere in hippocampus, tested 24 h post-infusion
Method: as §1, §2, §3

Molecule	contextual fear/threat memory (% time freezing) [1]	spatial memory retention (time to first enter shock zone), 3-day memory [2]	contextual fear/threat memory (% time freezing) [3]
O=S(=O)(O)c1cc(O)c2c(S(=O)(=O)O)cc(S(=O)(=O)O)cc2c1 [ζ-stat, 1-naphthol-3,6,8-trisulphonic acid]	has no effect	avoided the shock zone as well as those that had received vehicle; also recorded: not different than vehicle	has no effect
myr-N-FVRNSLERRSVRMKRPS-C (Myristoyl-FVRNSLERRSVRMKRPS) [K-ZAP]	–	has no effect on memory retention; also recorded: intact memory retention	–
